Test results: patent US12698311B2, “Process for the preparation of an antimicrobial peptide” (INSTITUTE OF BIORESOURCES AND SUSTAINABLE DEVELOPMENT, priority 2020, dated 2026)
No end group written: not given here.

How the values were obtained:
[1] = Retention of antimicrobial activity after treatment with inorganic solvents and temperature; format: physicochemical; set-up: key to Activity: (+) retention; (−) loss
Excerpt: Effect of Temperature and Inorganic Solvents:
The AMP, Peoriaerin IBSD35 is a very stable biomolecule and works on a wide range of temperature and pH and withstand against inorganic solvents as shown in Table 2 below.

[2] = Retention of antimicrobial activity after treatment with detergents; format: physicochemical; set-up: key: (+) retention; (−) loss
Protocol: The surfactants such as sodium dodecyl sulphate (SDS), Tween 20, Tween 80 and Triton X were incubated with the anti-microbial compound, Peoriaerin IBSD35.

[3] = Retention of antimicrobial activity after treatment with degradative enzymes; format: physicochemical; set-up: key to Activity: (+) retention; (−) loss
Protocol: Effect of Physiological Enzymes:
The purified AMP, Peoriaerin IBSD35 is treated with proteolytic enzymes, it can withstand against enzymes and its antimicrobial activity was checked by measuring the zone of inhibition as shown in Table 3 below.

[4] = format: cell-based; settings: broth dilution bioassay
Protocol: The peptides were recovered by lyophilization and stored at −20° C. until further use. The MIC of the RP-HPLC purified bioactive metabolite was determined to be 0.0365 μg μl^−1 with broth dilution bioassay. The two peaks were detected in the selected wavelengths of λ280 nm, λ205 nm and λ214 nm. However, only the peak 1 was selected for further study as it had shown more potency in antimicrobial susceptibility test.

[5] = test system: Candida albicans ATCC 10231, Escherichia coli ATCC 25922, Klebsiella pneumoniae ATCC 4352, Salmonella typhimurium ATCC 14028, Candida tropicalis ATCC 750 and …; assay: Spectrum of antimicrobial activity against AMR pathogens; format: cell-based; settings: six ATCC strains listed
Protocol: Spectrum of antimicrobial activity: The spectrum of activity was determined from the selected test pathogens viz. S. aureus ATCC25923, C. ablicans ATCC 10231, and E. coli ATCC 25922 which represented as a Gram (+), Gram (−) and fungal pathogens (FIG. 2). […] The cell debris were removed by centrifugation at 4000 rpm for 15 min at 4° C. The supernatant was harvested for antimicrobial bioassay and preserved at 4° C. for further purification (Fujita et al., 2007). The well loaded with samples that shown a clear halo zone of inhibition (at least 6-7 mm diameter) were taken as positive against the selected Gram (+ve), Gram (−ve) and fungal pathogens. The bacterial endophytic strain IBSD35 isolated from M. pachycarpa has shown a broad-spectrum of AA against the representative test pathogens in the preliminary Spot-on-lawn bioassay and the Cut-well agar diffusion bioassay (FIG. 2). It inferred antifungal, antibacterial and antimicrobial property of the endophyte strain IBSD35.

## GFEFAGAGNGVGRVNSATDATYGLGVFLDAGDNNLAKNAESTGYNDANAVTVTK [Peoriaerin IBSD35]
[1]
  stable at a pH in the range: 4-9
[1]; after Acetone (1:1)
  Activity: +
[1]; after Butanol (1:1)
  Activity: +
[1]; after Ethyl acetate (1:1)
  Activity: +
[1]; after Isopropanol (1:1)
  Activity: +
[1]; after Methanol (1:1)
  Activity: +
[1]; after Petroleum ether (1:1)
  Activity: +
[1]; after Temperature 20 ° C.
  Activity: +
[1]; after Temperature 40 ° C.
  Activity: +
[1]; after Temperature 60 ° C.
  Activity: +
[1]; after Temperature 80 ° C.
  Activity: +
[1]; after Temperature 100 ° C.
  Activity: +
[1]; after Temperature 121 ° C.
  Activity: +
[2]; after SDS (1:1)
  Activity: +
[2]; after Triton X (1:1)
  Activity: +
[2]; after Tween 20 (1:1)
  Activity: +
[2]; after Tween 80 (1:1)
  Activity: +
[3]; after Catalase
  Activity: +
[3]; after Cellulase
  Activity: +
[3]; after Pectinase
  Activity: +
[3]; after Pepsin
  Activity: +
[3]; after Proteinase K (1 mg/ml)
  Activity: +
  Zone of inhibition diameter: 11 mm
[4]
  MIC: 36.5 µg/mL
[5]
  antimicrobial activity against gram positive, gram negative and fungal anti-microbial resistant pathogens: strong and broad spectrum of antimicrobial activity
